According to the SangsterLogP compilation:

What was measured:
[1] = method code SF-AS, from DOI: 10.1111/j.1476-5381.1988.tb11523.x, PMID: 2900037; conditions: pH 7.5
[2] = method code SF-AS, from DOI: 10.1002/jps.2600650731; conditions: pH 11.5
[3] = method code SF-AS, from DOI: 10.1002/ddr.430140205; conditions: pH 7.4
[4] = method code SF-GLC, from DOI: 10.1007/bf00224496
[5] = method code SF-AS, from DOI: 10.1007/bf00165040, PMID: 3033523; conditions: pH 7.4
[6] = method code SF-EPR, from DOI: 10.1007/bf01870789, PMID: 2549250; conditions: pH 12.0
[7] = method code SF-HPLC, from PMID: 1515051; conditions: pH 6.0
[8] = method code SF-AS, from PMID: 3699148; conditions: pH 7.4
[9] = not given; remark: listed apart in the source
[10] = method code SF-AS, from DOI: 10.1021/jm00163a043, PMID: 2153206; conditions: pH 7.0
[11] = method code SF-AS, from DOI: 10.1021/es00012a023, PMID: 22148214
[12] = method code SF-RC, from DOI: 10.1016/s0969-8051(98)00096-1, PMID: 10100217; conditions: pH 7.4
[13] = not given; remark: listed apart in the source
[14] = method code SF-HPLC, from DOI: 10.1016/0006-2952(84)90322-8, PMID: 6704182
[15] = not given; remark: listed apart in the source
[16] = method code SF-AS, from DOI: 10.1021/jm00075a005, PMID: 8246220; conditions: pH 7.4
[17] = not given; remark: listed apart in the source
[18] = method code SF-AS, from DOI: 10.1016/s0021-9673(00)82600-x
[19] = method code SF-AS, from KuchaÅ™, M.; Rejholec, V.; Miller, V. (1985). Chromatographically determined lipophilicity and intramolecular interactions of bioactive compounds. Pharmacochemistry Library, 8, 321-331.; conditions: pH 3.4
[20] = method code SF-HPLC, from DOI: 10.1080/01483919108049396; conditions: pH 7.0
[21] = method code SF-CR, from DOI: 10.1248/cpb.21.2417, PMID: 4779830; conditions: pH 6.0
[22] = method code SF-GLC, from DOI: 10.1021/je970069v
[23] = method code SF-NMR, from DOI: 10.1021/jm00157a023, PMID: 3806574
[24] = method code SF, from DOI: 10.1016/j.bmcl.2006.04.097, PMID: 16714112

In the case of `O=C(NCCCOc1cccc(N2CCCCC2)c1)c1ccccc1`, the logD [1] is reported as 3.97.

`CCCCCC/N=C(N)/N=C(\N)Nc1ccc(Cl)cc1` showed a logD [2] of 1.85.

With `CC(C)Cn1c(=O)n(C)c(=O)c2nc[nH]c21` the logD [3] was 1.22.

`CCc1[nH]c(=O)[nH]c1C(=O)c1ccncc1` gave a logD [3] of 0.08.

Work on `CC1(C)C2CC3C(C2)C31C` yielded a logP [4] of 4.85.

For `CSc1nc2c(N)ncnc2n1C1OC2COP(=O)(O)OC2C1O` (configuration not stated), the logD [5] was -2.03.

`C=C(C)C(=O)OCC(O)COc1ccc(C(C)(C)c2ccc(OCC(O)COC(=O)C(=C)C)cc2)cc1` (configuration not stated) gave a logP of 3.34.

In the case of `C=C(C)C(=O)OCCC(C)OC(=O)C(=C)C` (configuration not stated), the logP is reported as 2.16.

`Nc1ncnc2c1nc(Sc1ccc(Cl)cc1)n2[C@@H]1O[C@@H]2COP(=O)(O)O[C@H]2[C@H]1O` gave a logD [5] of -0.98.

In the case of `CN(CCO)C1CC(C)(C)N(O)C(C)(C)C1`, the logD [6] is reported as 0.53.

Work on `C=C1C2CCC(C2)C1(C)C` (configuration not stated) yielded a logP [4] of 4.56.

`c1ccc2[nH]c(-c3cscn3)nc2c1` gave a logD [7] of 2.47.

`NC(=O)c1cc(Cl)ccc1NCCO` gave a logD [8] of 1.26.

With `O=C1NC(Cc2c[nH]c3ccccc23)C(=O)NC1Cc1ccc(O)cc1` (configuration not stated) the logP [9] was 1.21.

In the case of `Cc1cn([C@H]2C[C@H](N=[N+]=[N-])[C@@H](CO)O2)c(=O)[nH]c1=S`, the logD [10] is reported as 1.07.

`CC(C)OC(=O)CS(=O)c1ccc([N+](=O)[O-])cc1[N+](=O)[O-]` (configuration not stated) gave a logP [11] of 1.61.

`COC1=C(OC)C(=O)C(C)=CC1=O` gave a logD [12] of 0.73.

Work on `Cc1cn([C@H]2C=C[C@@H](CO)O2)c(=O)[nH]c1=S` yielded a logD [10] of 0.09.

In the case of `Cc1ccc(SCCNc2ccccc2C(N)=O)cc1`, the logD [8] is reported as 3.15.

Molecule `Clc1cccc2ccccc12` has a logP [13] of 3.9.

With `CC(C)C(C)Sc1nc2c(N)ncnc2n1C1OC2COP(=O)(O)OC2C1O` (configuration not stated) the logD [5] was -1.05.

`CC(=O)Nc1ccn([C@@H]2O[C@H](COC(C)=O)[C@@H](OC(C)=O)[C@@H]2OC(C)=O)c(=O)n1` showed a logP [14] of -0.16.

`CC1(C)C(C=C(Cl)Cl)C1C(=O)OCc1cccc(Oc2ccccc2)c1` (configuration not stated) showed a logP [15] of 5.85.

`O=c1ccn(C2OC(CO)C(O)C2O)c(=O)[nH]1` (configuration not stated) showed a logP [14] of -1.81.

For `COc1ccc(CON2C(=O)CC3(CCCC3)C2=O)cc1`, the logD [16] was 2.23.

`CC(=O)OC[C@H]1O[C@@H](n2ccc(N)nc2=O)[C@@H](OC(C)=O)[C@@H]1OC(C)=O` gave a logP [14] of -0.8.

With `CCCCOc1ccc(CC(=O)O)cc1` the logP [17] was 2.94.

`Nc1cnn(-c2cccc(C(F)(F)F)c2)c(=O)c1Cl` showed a logP [18] of 2.41.

Work on `CCc1ccc(C(C)(O)C(=O)O)cc1` (configuration not stated) yielded a logD [19] of 1.9.

Work on `CCOP(=S)(OCC)Oc1ccc([N+](=O)[O-])cc1` yielded a logP [15] of 3.45.

`O=C(Nc1ccn([C@H]2C[C@H](O)[C@@H](CO)O2)c(=O)n1)c1ccccc1` gave a logD [20] of 0.67.

`Cc1ccc(CC(=O)O)cc1` showed a logP [17] of 2.04.

`[cH:1]1[c:2]([Cl:3])[c:4]2[cH:5][cH:6][cH:7][c:8]([Cl:9])[c:10]2[cH:11][cH:12]1` gave a logP [13] of 4.67.

With `CN(c1nccs1)S(=O)(=O)c1ccc(N)cc1` the logD [21] was 1.63.

With `Nc1ncnc2c1ncn2C1CCC(CO)O1` (configuration not stated) the logD [20] was -0.29.

In the case of `CNC1CC(C)(C)N(O)C(C)(C)C1`, the logD [6] is reported as 0.84.

`O=c1[nH]c(=S)ccn1[C@H]1C=C[C@@H](CO)O1` gave a logD [10] of -0.28.

With `CC(C)C(C(=O)O)c1ccc([N+](=O)[O-])cc1` (configuration not stated) the logP [17] was 2.09.

With `Cc1cc(Cl)c(C(C)C)cc1Cl` the logP [22] was 5.6.

Molecule `CCOCCOCCOP(=S)(N1CC1(C)C)N1CC1(C)C` (configuration not stated) has a logP [23] of 0.47.

`O=[N+]([O-])c1ccccc1C1=NCCO1` showed a logP [24] of 1.27.

Work on `O=C1NC(Cc2ccccc2)C(=O)NC1Cc1ccccc1` (configuration not stated) yielded a logP [9] of 2.08.
